In patent US7053228B2, “Sulfur analogues of 21-hydroxy-6,19-oxidoprogesterone (21OH-6OP) for treating excess of glucocorticoids” (Applied Research Systems ARS Holding N.V., priority 2000, dated 2006):

Legend:
glucocorticoid receptor = target: T1, glucocorticoid receptor (Homo sapiens, UniProt P04150); test: Reporter gene assay pMMTV-Luc expression in Cos-1 line; format: cell-based; settings: test compound 10^−6 M with dexamethasone; Cos-1 cells transfected with pMMTV-Luc and pRSV-GR
T1 construct: expressed in transfected cells; host or cells: Cos-1
T1 sequence (P04150 1-777): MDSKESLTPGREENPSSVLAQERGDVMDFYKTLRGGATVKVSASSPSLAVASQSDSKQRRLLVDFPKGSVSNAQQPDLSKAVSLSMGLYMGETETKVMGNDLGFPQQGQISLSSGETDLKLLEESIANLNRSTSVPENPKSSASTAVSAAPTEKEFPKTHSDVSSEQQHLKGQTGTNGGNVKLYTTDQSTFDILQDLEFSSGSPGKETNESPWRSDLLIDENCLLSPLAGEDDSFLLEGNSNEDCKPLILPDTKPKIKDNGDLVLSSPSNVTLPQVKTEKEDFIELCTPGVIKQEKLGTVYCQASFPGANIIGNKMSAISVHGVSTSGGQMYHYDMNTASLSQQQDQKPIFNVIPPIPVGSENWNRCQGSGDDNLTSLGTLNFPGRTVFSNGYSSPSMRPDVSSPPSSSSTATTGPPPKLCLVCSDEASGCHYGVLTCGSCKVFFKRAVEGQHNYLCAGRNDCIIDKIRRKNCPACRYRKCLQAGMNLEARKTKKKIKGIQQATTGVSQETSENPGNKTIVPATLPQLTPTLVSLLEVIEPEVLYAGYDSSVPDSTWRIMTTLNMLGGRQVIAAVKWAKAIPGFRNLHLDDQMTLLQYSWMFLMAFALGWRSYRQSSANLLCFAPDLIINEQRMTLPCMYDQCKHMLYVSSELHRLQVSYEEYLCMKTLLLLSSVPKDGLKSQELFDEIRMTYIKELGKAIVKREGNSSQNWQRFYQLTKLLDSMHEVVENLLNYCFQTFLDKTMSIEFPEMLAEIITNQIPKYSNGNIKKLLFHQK
Protocol: vol. 7 No. 10 (1989). The assay may discriminate between gluco/antigluco- and progestin/antiprogestin-effects of the test compounds. Cells were grown on 100 mm plates with 8 ml D-MEM (Dubecco's modified Eagle's medium Gibco BRL), supplemented with 10% bovine fetal serum (Bioser), 3,7 g/l sodium bicarbonate and 100 IU/penicilin G, 100 μg/ml streptomycin, 0,25 μg amphotericin B in an atmosphere in an of 5% CO2 at 37° C. Cells were treated with 0,25% trypsin, 1 mM EDTA and were plated at a density of 5×10^5 cells/plate, in 60 mm plates. Cos-1 cells were transfected with a construct encoding the glucocorticoid receptor, and a construct with the luciferase gene under the MMTV promoter. Cells were transfected by precipitation with calcium phosphate adding 25 μl of a 2M CaCl2 solution to a solution containing 3 pmoles of vectors pMMTV-Luc and pRSV-GR encoding luciferase and the glucocorticoid receptor, respectively. […]
The transfection mixture was added dropwise to an equal volume of transfection buffer 2×BBS, containing phosphate. […] From the supernatant the luciferase activity was determined. […] Luciferase expression was assayed employing a Promega kit in partial obscurity and measured with a Junior luminometer (EG&G Berthold, Germany).
β Galactosidase was determined by hydrolysis of a phenyl galactoside. […]

rat thymocytes = test: Apoptosis in rat thymocytes (annexin V-FITC/propidium iodide flow cytometry); format: cell-based; settings: early + late apoptosis
Protocol: On this basis, the antiglucocorticoid properties of the compounds of the present invention may be determined by examining the decrease/increase of apoptosis in rat thymocytes after treatment with a given test compounds. Regulation of apoptosis was analyzed by flow cytometry. The method consists of quantifying fluorometrically the apoptotic cells in the sample. In normal viable cells phosphatidyl serine (PS) is located on the cytoplasmic surface of the cell membrane. Upon induction of apoptosis, rapid alteration in the organization of phospholipids in most cell types occurs leading to exposure of PS on the cell surface. In vitro detection of externalized PS may be achieved through interaction with the anticoagulant annexin V. In the presence of calcium, rapid high affinity binding of annexin V to PS occurs. PS translocation to the cell surface precedes nuclear breakdown, DNA fragmentation and the appearance of most apoptosis-associated molecules making annexin V binding a marker of early-stage apoptosis. In the assay used, a fluorescein isothiocyanate (FITC) conjugate of annexin V is used allowing detection of apoptosis by flow cytometry. Since membrane permeabilization is observed in necrosis, necrotic cells will also bind annexin V-FITC. Propidium iodide is used to distinguish between viable and early apoptotic cells thus the latter will be labeled only with FITC while late apoptotic cells will be labeled with FITC and propidium iodide. An annexin V-FITC apoptosis detection kit from Oncogen Research Products (cat. No. PF032) was used following the RAPID protocol recommended by the manufacturer. Briefly, after incubation with various compounds (see below), cells were centrifuged at 2000 rpm for 5 min, the media removed and cell pellets washed with phosphate buffered saline (PBS): Cells were resuspended in the binding buffer to a density of 1×10^6 cells/ml. Binding reagent (10 μl) and annexin V/FITC (1.25 μl) were added and cells incubated for 15 min at room temperature in the dark. The cells were centrifuged and to the pellet were added binding buffer (0.5 ml) and propidium iodide (10 μl). Samples were analyzed by flow cytometry in a Cytoron Absolute cytometer (Ortho Diagnostic Systems). […] The cytograms obtained are presented in FIGS. 3a-3f, where GR-FL represents fluorescence from FITC and RD-FL represents fluorescence from propidium iodide. […] Early apoptotic cells with exposed PS but intact cell membranes appear in the […] quadrant. Necrotic or late apoptotic cells appear in the upper right quadrant. A small percentage of normal cell death may also occur, none is observed in this case.

kidney-MR = target: T2, kidney-MR (Homo sapiens, UniProt P08235); settings: cited from earlier work
T2 construct: host or cells: kidney
T2 sequence (P08235 1-984): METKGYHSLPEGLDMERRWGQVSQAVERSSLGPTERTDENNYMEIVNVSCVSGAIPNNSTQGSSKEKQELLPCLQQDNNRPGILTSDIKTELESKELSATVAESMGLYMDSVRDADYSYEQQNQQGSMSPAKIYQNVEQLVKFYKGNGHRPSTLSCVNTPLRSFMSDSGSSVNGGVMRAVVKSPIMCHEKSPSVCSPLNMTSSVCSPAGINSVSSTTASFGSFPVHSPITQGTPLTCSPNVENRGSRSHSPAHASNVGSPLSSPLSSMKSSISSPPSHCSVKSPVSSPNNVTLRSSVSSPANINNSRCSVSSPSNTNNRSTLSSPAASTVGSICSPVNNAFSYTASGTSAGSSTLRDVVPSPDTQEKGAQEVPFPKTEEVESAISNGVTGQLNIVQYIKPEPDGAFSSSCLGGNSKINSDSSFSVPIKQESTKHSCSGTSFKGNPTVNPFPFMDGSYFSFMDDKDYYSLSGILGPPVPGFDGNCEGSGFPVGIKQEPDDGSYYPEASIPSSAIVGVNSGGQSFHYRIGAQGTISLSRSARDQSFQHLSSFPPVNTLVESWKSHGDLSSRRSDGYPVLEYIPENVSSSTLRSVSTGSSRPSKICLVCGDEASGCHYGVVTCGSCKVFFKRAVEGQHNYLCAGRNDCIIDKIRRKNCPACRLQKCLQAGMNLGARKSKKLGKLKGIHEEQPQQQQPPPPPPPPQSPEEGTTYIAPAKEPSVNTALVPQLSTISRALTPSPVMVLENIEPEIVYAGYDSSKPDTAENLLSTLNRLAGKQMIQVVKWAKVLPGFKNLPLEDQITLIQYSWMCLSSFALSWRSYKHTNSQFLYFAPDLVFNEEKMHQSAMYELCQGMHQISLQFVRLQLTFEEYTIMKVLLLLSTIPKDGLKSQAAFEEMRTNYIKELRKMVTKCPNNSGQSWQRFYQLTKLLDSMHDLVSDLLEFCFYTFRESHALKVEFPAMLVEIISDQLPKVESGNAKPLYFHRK

uterus-PR = target: T3, uterus-PR (Homo sapiens, UniProt P06401); settings: cited from earlier work
T3 construct: host or cells: uterus
T3 sequence (P06401 1-933): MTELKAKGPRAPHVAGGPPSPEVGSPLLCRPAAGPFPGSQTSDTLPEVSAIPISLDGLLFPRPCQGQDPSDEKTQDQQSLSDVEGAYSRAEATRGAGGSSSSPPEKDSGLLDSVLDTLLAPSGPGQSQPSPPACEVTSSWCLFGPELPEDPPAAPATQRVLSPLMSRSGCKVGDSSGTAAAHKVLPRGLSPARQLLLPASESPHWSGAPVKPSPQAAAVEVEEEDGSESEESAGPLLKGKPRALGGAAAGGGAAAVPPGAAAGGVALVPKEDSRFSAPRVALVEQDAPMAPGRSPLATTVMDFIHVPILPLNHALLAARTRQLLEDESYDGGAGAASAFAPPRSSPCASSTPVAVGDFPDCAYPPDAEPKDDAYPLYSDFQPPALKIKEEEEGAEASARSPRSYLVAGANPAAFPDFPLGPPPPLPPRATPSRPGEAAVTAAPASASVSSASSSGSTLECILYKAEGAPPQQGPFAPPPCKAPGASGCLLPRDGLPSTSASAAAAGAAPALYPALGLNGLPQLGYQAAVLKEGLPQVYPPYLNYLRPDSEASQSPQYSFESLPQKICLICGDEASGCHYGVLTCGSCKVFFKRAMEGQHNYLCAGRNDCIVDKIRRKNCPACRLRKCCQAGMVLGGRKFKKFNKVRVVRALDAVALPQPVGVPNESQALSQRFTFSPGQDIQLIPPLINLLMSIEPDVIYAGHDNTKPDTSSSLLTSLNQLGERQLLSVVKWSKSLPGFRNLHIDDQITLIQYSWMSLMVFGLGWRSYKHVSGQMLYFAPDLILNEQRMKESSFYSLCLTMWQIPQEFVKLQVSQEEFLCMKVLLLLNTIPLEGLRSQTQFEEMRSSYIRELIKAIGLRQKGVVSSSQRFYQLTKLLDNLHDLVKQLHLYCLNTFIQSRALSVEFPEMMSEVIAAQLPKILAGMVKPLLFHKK

[1] = Dexamethasone 10^−8 M + test compound 10^−5 M, 4 h at 37° C.

**Q.** Which results are given for `C[C@]12CCC3C(C[C@@H]4C5=CC(=O)CC[C@@]53C[S+]4[O-])C1CCC2C(=O)CO` (stereo partly drawn) [Compound 4, 21-Hydroxy-6,19-sulfoxy-4-pregnene-3,20-dione]?
**A.** reduction of the luciferase/β galactosidase ratio (glucocorticoid receptor): about 65%; % total apoptosis (rat thymocytes; [1]): 34.60%

**Q.** Which “% total apoptosis” value (rat thymocytes; Dexamethasone 10^−8 M alone, thymocytes 4 h at 37° C.) does the source give for `C[C@@H]1C[C@H]2[C@@H]3CCC4=CC(=O)C=C[C@]4(C)[C@@]3(F)[C@@H](O)C[C@]2(C)[C@@]1(O)C(=O)CO` [Dexamethasone] here?
**A.** 40.40%

**Q.** For `C[C@]12CCC3C(C[C@@H]4C5=CC(=O)CC[C@@]53CS4(=O)=O)C1CCC2C(=O)CO` (stereo partly drawn) [Compound 5, 21-Hydroxy-6,19-sulfone-4-pregnene-3,20-dione], which “% total apoptosis” value (rat thymocytes; [1]) is on record?
**A.** 31.40%

**Q.** Which “% total apoptosis” value (rat thymocytes; Dexamethasone 10^−8 M + reference compound 10^−6 M, 4 h at 37° C.) does the source give for `CC#C[C@]1(O)CC[C@H]2[C@@H]3CCC4=CC(=O)CCC4=C3[C@@H](c3ccc(N(C)C)cc3)C[C@@]21C` [RU-486, 11-(4-Dimethylamino-phenyl)-17-hydroxy-13-methyl-17-prop-1-ynyl-1,2,6,7,8,11,12,13,14,15,16,17-dodecahydro-cyclopenta[α]phenanthren-3-one] here?
**A.** 35.50%

**Q.** For `C[C@]12CCC3C(C[C@H]4OC[C@@]35CCC(=O)C=C45)C1CCC2C(=O)CO` (stereo partly drawn) [Compound 21OH-6OP, 21-hydroxy-6,19-oxidoprogesterone], which “cross-reaction with kidney-MR” value (kidney-MR) is on record?
**A.** does not substantially cross-react

**Q.** And the “cross-reaction with uterus-PR” value (uterus-PR)?
**A.** does not substantially cross-react

**Q.** What about the “% total apoptosis” value (rat thymocytes; [1]) of the same compound?
**A.** 38.10%

**Q.** Which “% total apoptosis” value (rat thymocytes; [1]) does the source give for `C[C@]12CCC3C(C[C@H]4SC[C@@]35CCC(=O)C=C45)C1CCC2C(=O)CO` (stereo partly drawn) [Compound 3, 21-Hydroxy-6,19-sulfanyl-4-pregnene-3,20-dione] here?
**A.** 37.50%
